One data set relates to meningeal fibroblasts. In kind it is cell-based, rat. As to conditions: 10 nM SB743921, 48 hours; control almost 90 %. The method, then: Meningeal fibroblasts were cultured from adult rat dura mater and arachnoid mater in the presence of fetal bovine serum following published procedures (Collazos-Castro JE, Polo JL, Hernández-Labrado […]. Bioelectrochemical Control of Neural Cell Development on Conducting Polymers. Biomaterials 2010;31:9244-9255). […] The behavior of living cells was studied by means of videomicroscopy, capturing images every 30 minutes for 48 hours. In separate cultures, cell proliferation was also studied by means of the incorporation of 5-ethynyl-2'-deoxyuridine (EdU).

Data set [1] in a line: Systemic (subcutaneous) administration of SB743921 after spinal cord transection. The settings on record: rat, in vivo, every 12 hours, starting 12 hours post-injury, at 7 DPI. In kind it is in vivo, rats. On the procedure: (§1) A spinal transection model in adult male Wistar rats was used. Experimental protocols followed European Commission regulations and Spanish legislation for the protection of experimental animals (86/609/EEC, 32/2007, and 223/1988) and were approved by the Ethical Committee for Animal Experimentation of the Hospital Nacional de Parapléjicos of Toledo, Spain. In summary, animals were anesthetized by intraperitoneal (IP) injection of pentobarbital (50 mg/kg) and xylazine (10 mg/kg), providing supplemental doses of 30% one and a half hours later as needed. There were also administered atropine (0.04 mg/kg, IP) to decrease bronchial secretions, marbofloxacin as a prophylactic antibiotic, and ophthalmic ointment to prevent corneal abrasion. A dorsal laminectomy of the T9-T10 vertebrae, under which the T10 and T11 spinal segments are located, respectively, was performed. A small diagonal cut was made in the dura mater, followed by complete spinal cord transection. After a second more rostral cut, the tissue in between was extirpated leaving a neural tissue gap of about 2 mm (Figure 1A). Bleeding was controlled by introducing a fragment of Espongostan® into the cavity, which was removed once hemostasis was achieved. Durorrhaphy was then performed with simple stitches using 10-0 thread; and finally, the muscles and skin were sutured in layers.
(§2) The same spinal cord transection model described in Example 1 was used, in other words, a 2 mm neural gap was created and the dura mater was sutured without other treatments at the injured site. The drug was dissolved in water at 0.8 mg/ml and administered subcutaneously (SC).
(§3) Neural damage, Fibrosis development, inflammation, and repair responses (axonal growth, glial migration, blood vessel growth) were evaluated by means of immunohistochemical staining for axons (neurofilament, NF, Sigma-Aldrich N0142; serotonin, ImmunoSolution IG1112; tyrosine hydroxylase, TH, Sigma AB152), neuronal somas and their dendrites (microtubule-associated protein, MAP2, Sigma M1406), astroglia (glial fibrillary acidic protein, GFAP, BD Biosciences 556327); pericytes and fibroblasts (PDGFR, Abcam AB32570; type IV collagen, Meridian, T40251R), macrophages and microglia (ED1; Chemicon MAB 1435; isolectin B4, Fisher I21411), and endothelial cells (RECA1, Bio-Rad, MCA970R).

Data set [2] concerns rats with spinal cord transection. The data set is described as above. As to conditions: for Reduction of fibrosis: 7 DPI. In kind it is in vivo. The method, then: as §1, §2, §3
Data set [3] shares this test system.
The mark [4] stands for this setting: regimen a: 1 mg/kg subcutaneous, one dose every 24 hours for 2, 4, or 6 days, starting 12 hours post-injury.
[5] abbreviates: regimen b: 1 mg/kg SC, 5 doses, every 12 hours, starting 12 hours post-injury.
Where [6] appears, read: regimen c: 1 mg/kg SC, 4 doses, every 12 hours, starting 24 hours post-injury.
[7] abbreviates: regimen e: 1,125 mg/kg SC, 4 doses, every 12 hours, starting 12 hours post-injury.

By mortality is commonly meant the percentage killed. Higher therefore signals fewer survivors.

Each structure is given as a SMILES string. Entries after “also recorded” stand apart in the source; their conditions may differ.

For the compound `Cc1ccc(C(=O)N(CCCN)[C@@H](c2oc3cc(Cl)ccc3c(=O)c2Cc2ccccc2)C(C)C)cc1` [SB743921], in the data set on meningeal fibroblasts, the “cells that incorporated EdU” value amounted to 20%. Besides, the mortality at 168 h in data set [1] (1.125 mg/kg, regimen e: 1,125 mg/kg SC, 4 doses) is above 90%; in data set [1] (regimen b: 1 mg/kg SC, 5 doses) it was above 50%. Also, in data set [2] (Figure 3, 7 DPI, GFAP and MAP2 labeling, initial gap 2 mm), the neural tissue gap result was “less than 500 µm”. Moreover, in data set [2] (Figure 3, 7 DPI, regimen not stated), the “fibrosis (PDGFR)” value is “partial reduction”. Further, the Neural tissue damage entry in data set [2] (rat, in vivo, sc, 1 mg/kg) is “Severe spinal atrophy with 6 doses”; in data set [2] (setting [5]), “Mild microhemorrhages”; in data set [2] (setting [6]) it was “Increases due to inflammation”; in data set [2] (setting [7]) it was “Inconsistent”. Further, the Systemic adverse effects result in data set [2] (setting [4]) is recorded as “No detected in the period of survival (7 days post-injury, DPI)”; in data set [2] (setting [5]) it was “Diarrhea, peritonitis”; in data set [2] (setting [7]), “Diarrhea, peritonitis”. The Reduction of fibrosis entry is “Slight reduction from the 4th dose” in data set [2] (setting [4]); “partially reduced fibrosis; also recorded: Partial” in data set [2] (setting [5]); “Inconsistent” in data set [2] (setting [6]); “Inconsistent” in data set [2] (regimen d: 1 mg/kg SC, 4 doses, every 12 hours, starting 12 hours post-injury); “Inconsistent” in data set [2] (setting [7]). The “signs of neurotoxicity in the perilesional tissue” value in data set [2] (regimen b) was “no obvious signs of neurotoxicity”. Further, in data set [2] (regimen b, signs of enterocolitis and bacterial translocation or intestinal perforation), the “animals that had died 7 DPI” value is reported as “Four of the seven”.
Take `Cc1ccc(NC(=O)c2ccc(CN3CCN(C)CC3)cc2)cc1Nc1nccc(-c2cccnc2)n1` [imatinib]: in data set [3] (imatinib regimen a: 4 doses of 5 mg/kg SC, every 12 hours, starting 12 hours post-injury, with implant and ES), the “safety (death, adverse effects)” value is “completely safe”. For the same compound, the “inflammatory cells in the perilesional spinal segments” value in data set [3] (imatinib regimen a: 4 doses of 5 mg/kg SC, every 12 hours, with implant and ES) was “reduced presence of inflammatory cells”. In addition, the “PDGFR+ residual fibrotic tissue in the injury site” value in data set [3] (imatinib regimen b: regimen a and additionally 5 mg/kg everyday until the end of electrostimulation, with implant and ES) was “practically eliminated”. The “cases with separation of the stumps of the spinal cord” value in data set [3] (imatinib regimen b, with implant and ES) is “two thirds”. In addition, the “distance between the astrocyte front of the stumps” value in data set [3] (imatinib regimen b, with implant and ES, 14 DPI, remaining one-third of the animals) is given as “about 400 µm”. For the same compound, the “axonal extension and branching” value in data set [3] (implant with ES combined with subcutaneous imatinib versus implant with ES alone) is “significantly increasing axonal extension and branching”.
